# In US20190365698A1, “Use of Antineoplastic Agents to Stimulate the Immune System for Treatment of Cancer” (CRITITECH, INC., priority 2018, published 2019):
# Several values for one entry are separate records, joined by “and”; a condition that tells them apart may be missing. Equal entries are not always repeated. Marks after values point to notes of the source that are not given here.
# Key:
# [1] = test system: 786-O cell line; assay: Renal cell adenocarcinoma xenograft: histology and immunohistochemistry (viable carcinoma size, necrosis, lymphohistiocytic infiltrate); type: in vivo, Sprague-Dawley Rag2; Il2rg null (SRG) rat
# Description: Microscopic Examination: Tissues fixed with 10% NBF were embedded in paraffin. Each tumor was cut into 2-3 pieces and embedded and sectioned together.
# [2] = test system: UM-UC-3 bladder cancer cell line; assay: Human bladder cancer (UM-UC-3) mouse xenograft study: tumor volume; type: in vivo, Hsd:Athymic Nude-Foxnlnu nude mice
# Method: Tumor volume was determined with calipers. […] Animals were weighed 2×/week.
# At day 18 after tumor implant, when average tumor size was between 50-325 mm^3, animals were sorted into five groups with equal average tumor sizes and were treated as shown in Table 25 below.
# The second treatments (2nd cycle) occurred 7 days following first treatment (1st cycle) and third treatments (3rd cycle) occurred 14 days following the first treatment. The docetaxel solution IV was administered via the tail vein.
# Vehicle (Control): Diluted 1 ml of the 1% Polysorbate 80/8% Ethanol in normal saline (0.9% Sodium Chloride for Injection) reconstitution solution with 1.5 mL of normal saline (0.9% Sodium Chloride for Injection, USP). […] Vigorously hand shook the vial with inversions for 1 minute. […] Allowed the suspension to sit undisturbed for at least 5 minutes to reduce entrapped air and foam. […] Vortexed to mix.
# [3] = test system: UM-UC-3 bladder cancer cell line; assay: Bladder cancer xenograft study: histology and immunohistochemistry (viable carcinoma size, necrosis, macrophage infiltrate, TLS, necropsy volume)
# Method: Tumors were implanted with 1×10^7 cells (1004, volume) into right flank (PBS 1:1 with matrigel: BD356234). Tumor volume was determined with calipers. Formula: V=(r length*r width*r height)*π*4/3. Animals were weighed 2×/week. Tumor volumes were determined every 3 to 4 days following tumor implant (total of ˜20 measurements) and on day of euthanasia. Photo images of tumors were obtained at 2, 3 and 4 weeks post implantation and on day of euthanasia. Animals were euthanized once the tumor reached a size of 3,000 mm^3 or up to the point of significant tumor ulceration. At the time of euthanasia, tumors were isolated and halved. […] The second half of the tumor was fixed in formalin. Two H&E stained slides/tumor were prepared (up to 4 tumor/group were processed).
# Tumor tissue was fixed before H&E and IHC staining. Bladder tissue sections were deparaffinized and processed by standard H&E and IHC staining. At least four tumors per treatment group were processed.
# [4] = test system: 786-O cell line; assay: Rat xenograft model of human renal cell adenocarcinoma: tumor volume; type: in vivo, Sprague-Dawley Rag2; Il2rg null (SRG) rat; conditions: IV docetaxel, 3 weekly cycles
# [5] = Solubility of the active in the receptor fluid; type: physicochemical; conditions: not told, aqueous with cosolvent or surfactant or cyclodextrin; 96 wt % PBS at pH 7.4 and 4 wt % hydroxyl propyl beta cyclodextrin
# Method: The receptor fluid was degassed by filtering the receptor fluid through a ZapCap CR 0.2 μm membrane while pulling vacuum. The filtered receptor fluid was stirred for an additional 20 minutes while maintaining vacuum to ensure complete degassing.
# [6] = IV Docetaxel 3 cycles, 2 animals
smiles,measurement,setting,value
CC(=O)O[C@@]12CO[C@@H]1C[C@H](O)[C@@]1(C)C(=O)[C@H](O)C3=C(C)[C@@H](OC(=O)[C@H](O)[C@@H](NC(=O)OC(C)(C)C)c4ccccc4)C[C@@](O)([C@@H](OC(=O)c4ccccc4)[C@H]21)C3(C)C [Doce],Percentage of tissue showing necrosis: number of animals with 5-50%,"[1]; IV Doce, 2 animals",2
same,Lymphohistiocytic infiltrate density: number of animals graded Mild,"[1]; IV Doce, 2 animals, H/E and CD11b staining",2
"CC(=O)O[C@@]12CO[C@@H]1C[C@H](O)[C@@]1(C)C(=O)[C@H](O)C3=C(C)[C@@H](OC(=O)[C@H](O)[C@@H](NC(=O)OC(C)(C)C)c4ccccc4)C[C@@](O)([C@@H](OC(=O)c4ccccc4)[C@H]21)C3(C)C [Docetaxel, docetaxel]",Tumor volume over time,"[2]; Docetaxel IV 30 mg/kg, 3 weekly cycles, 61 days","decreased initially for dosages of nDoce IT 1 cycle and Docetaxel IV 3 cycles, but subsequently increased"
same,Effectiveness in relation to initial tumor size,[2]; Docetaxel IV 3 cycles,"somewhat effective at treating small tumors, but not very effective in treating large tumors"
same,"Histological overview, general observations (H&E)",[3]; Docetaxel Solution IV 3 cycles,many viable appearing tumor masses with some macrophage and occasional lymphocytic response along with some tumor necrosis
same,"Immunohistochemistry overview, F4/80 stain","[3]; FIG. 87, IV Docetaxel 3 cycles",Very little tumor cell destruction and few scattered mononuclear immune cells among vast number of viable tumor cells
same,# containing at least one TLS,[3]; [6],0
same,Maximum size of viable invasive carcinoma on the slide >10 mm (number of animals),[3]; [6],2*
same,Percentage of tumor showing necrosis: number of animals with 11-50%,[3]; [6],1
same,Percentage of tumor showing necrosis: number of animals with 50-90%,[3]; [6],1
same,Macrophage infiltrate density Mild (number of animals),"[3]; IV Docetaxel 3 cycles, H&E and CD68",2
same,Maximum tumor size on slide,"[3]; IV Docetaxel 3 cycles, individual animals B1, B3",15 mm and 11 mm
same,TLSs,[3]; IV docetaxel 3 cycles,There were no TLSs present
same,"tumor mass maximum dimension on the slide, individual cases",[3]; IV docetaxel 3 cycles,11 mm and 15 mm
same,"geographic tumor cell necrosis, share of tumor area, individual cases","[3]; IV docetaxel 3 cycles, cases B1 and B3",11-50% and 50-90%
same,Histology overview (H&E) vs vehicle control,"[1]; Docetaxel (IV) 3 cycles, FIG. 93",no difference
same,morphologic and immunohistochemical appearance,"[1]; IV docetaxel, two cases",identical morphologic and immunohistochemical appearance to that seen in the control and IT vehicle groups
same,Size of residual viable carcinoma on slide: number of animals with >10 mm,"[1]; IV docetaxel, 2 animals",2
same,"residual viable carcinoma nodules, size",[1]; both IV docetaxel animals,greater than 10 mm
same,tumor growth vs vehicle control,[4],partial tumor growth inhibition compared to vehicle control
CC(=O)O[C@H]1C(=O)[C@@]2(C)[C@H]([C@H](OC(=O)c3ccccc3)[C@]3(O)C[C@H](OC(=O)[C@H](O)[C@@H](NC(=O)c4ccccc4)c4ccccc4)C(C)=C1C3(C)C)[C@]1(OC(C)=O)CO[C@@H]1C[C@@H]2O [paclitaxel],solubility,[5],~0.4 µg/mL
